Test results: PubChem BioAssay (NCI)
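Growth conditions: 96-well plates. Treatment: test compound, 48 hours, 5 concentrations. Analysis: linear interpolation between bracketing concentrations; unreached endpoints set to highest concentration. GI50: concentration for 50% inhibition of growth. TGI is the concentration that stops growth completely.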

What was measured:
Assay in all cases: DTP human tumour cell line panel, 48 h
UACC-62 melanoma = system: UACC-62 melanoma
HL-60(TB) leukemia = system: HL-60(TB) leukemia
OVCAR-5 ovarian = system: OVCAR-5 ovarian
OVCAR-8 ovarian = system: OVCAR-8 ovarian
HCT-15 colon = system: HCT-15 colon
SF-539 CNS = system: SF-539 CNS
SK-MEL-28 melanoma = system: SK-MEL-28 melanoma
HOP-92 NSCLC = system: HOP-92 NSCLC
MDA-MB-231 breast = system: MDA-MB-231 breast
786-0 renal = system: 786-0 renal
HS 578T breast = system: HS 578T breast
TK-10 renal = system: TK-10 renal
NCI/ADR-RES ovarian = system: NCI/ADR-RES ovarian
SN12C renal = system: SN12C renal
HCT-116 colon = system: HCT-116 colon
SW-620 colon = system: SW-620 colon
CAKI-1 renal = system: CAKI-1 renal
IGROV1 ovarian = system: IGROV1 ovarian
SNB-19 CNS = system: SNB-19 CNS
A498 renal = system: A498 renal
UO-31 renal = system: UO-31 renal
UACC-257 melanoma = system: UACC-257 melanoma
M14 melanoma = system: M14 melanoma
A549 NSCLC = system: A549 NSCLC
ACHN renal = system: ACHN renal
NCI-H23 lung = system: NCI-H23 lung
COLO 205 colon = system: COLO 205 colon
EKVX NSCLC = system: EKVX NSCLC
SNB-75 CNS = system: SNB-75 CNS
NCI-H460 lung = system: NCI-H460 lung
KM12 colon = system: KM12 colon
MOLT-4 leukemia = system: MOLT-4 leukemia
OVCAR-4 ovarian = system: OVCAR-4 ovarian
SF-295 CNS = system: SF-295 CNS
NCI-H226 lung = system: NCI-H226 lung
MALME-3M melanoma = system: MALME-3M melanoma
T-47D breast = system: T-47D breast
SR leukemia = system: SR leukemia
DU-145 prostate = system: DU-145 prostate
RPMI-8226 leukemia = system: RPMI-8226 leukemia
SF-268 CNS = system: SF-268 CNS
OVCAR-3 ovarian = system: OVCAR-3 ovarian
SK-MEL-5 melanoma = system: SK-MEL-5 melanoma
CCRF-CEM leukemia = system: CCRF-CEM leukemia
HCC-2998 colon = system: HCC-2998 colon
PC-3 prostate = system: PC-3 prostate
HOP-62 NSCLC = system: HOP-62 NSCLC
BT-549 breast = system: BT-549 breast
HT29 colon = system: HT29 colon
SK-OV-3 ovarian = system: SK-OV-3 ovarian
MDA-MB-435 = system: MDA-MB-435
U251 CNS = system: U251 CNS
NCI-H522 lung = system: NCI-H522 lung
MCF7 breast = system: MCF7 breast
SK-MEL-2 melanoma = system: SK-MEL-2 melanoma
RXF 393 renal = system: RXF 393 renal
LOX IMVI melanoma = system: LOX IMVI melanoma

COc1cc2c3c(n(CCCNC4CCCCC4)c(=O)c2cc1OC)-c1cc2c(cc1C3=O)OCO2
GI50 (UACC-62 melanoma): 27 µM
TGI (UACC-62 melanoma): > 66.5 µM
GI50 (HL-60(TB) leukemia): 1.62 µM
TGI (HL-60(TB) leukemia): 4.87 µM
GI50 (OVCAR-5 ovarian): 20.3 µM
TGI (OVCAR-5 ovarian): 48.4 µM
GI50 (OVCAR-8 ovarian): 18 µM
TGI (OVCAR-8 ovarian): 36.6 µM
GI50 (HCT-15 colon): 1.62 µM
TGI (HCT-15 colon): 3.21 µM
GI50 (SF-539 CNS): 4.57 µM
TGI (SF-539 CNS): 8.91 µM
GI50 (SK-MEL-28 melanoma): 22.7 µM
TGI (SK-MEL-28 melanoma): > 55.7 µM
GI50 (HOP-92 NSCLC): 15.5 µM
TGI (HOP-92 NSCLC): 42 µM
GI50 (MDA-MB-231 breast): 2.18 µM
TGI (MDA-MB-231 breast): 5.13 µM
GI50 (786-0 renal): 1.73 µM
TGI (786-0 renal): 3.19 µM
GI50 (HS 578T breast): 49 µM
TGI (HS 578T breast): > 100 µM
GI50 (TK-10 renal): 20.9 µM
TGI (TK-10 renal): 36.7 µM
GI50 (NCI/ADR-RES ovarian): 1.78 µM
TGI (NCI/ADR-RES ovarian): 4.45 µM
GI50 (SN12C renal): 18.2 µM
TGI (SN12C renal): > 57.8 µM
GI50 (HCT-116 colon): 1.59 µM
TGI (HCT-116 colon): 3.03 µM
GI50 (SW-620 colon): 1.44 µM
TGI (SW-620 colon): 4.18 µM
GI50 (CAKI-1 renal): 7.69 µM
TGI (CAKI-1 renal): 22.9 µM
GI50 (IGROV1 ovarian): 15.4 µM
TGI (IGROV1 ovarian): > 100 µM
GI50 (SNB-19 CNS): 26.2 µM
TGI (SNB-19 CNS): > 76.5 µM
GI50 (A498 renal): 20.8 µM
TGI (A498 renal): 49.1 µM
GI50 (UO-31 renal): 13.3 µM
TGI (UO-31 renal): 27.3 µM
GI50 (UACC-257 melanoma): 18.9 µM
TGI (UACC-257 melanoma): 43 µM
GI50 (M14 melanoma): 18.3 µM
TGI (M14 melanoma): 39.2 µM
GI50 (A549 NSCLC): 5.87 µM
TGI (A549 NSCLC): 18.5 µM
GI50 (ACHN renal): 8.95 µM
TGI (ACHN renal): 33.5 µM
GI50 (NCI-H23 lung): 1.86 µM
TGI (NCI-H23 lung): 4.22 µM
GI50 (COLO 205 colon): 8 µM
TGI (COLO 205 colon): > 54 µM
GI50 (EKVX NSCLC): 14.3 µM
TGI (EKVX NSCLC): > 63.8 µM
GI50 (SNB-75 CNS): 11.9 µM
TGI (SNB-75 CNS): 25.5 µM
GI50 (NCI-H460 lung): 1.52 µM
TGI (NCI-H460 lung): 3.24 µM
GI50 (KM12 colon): 11.7 µM
TGI (KM12 colon): > 59 µM
GI50 (MOLT-4 leukemia): 0.354 µM
TGI (MOLT-4 leukemia): 3.93 µM
GI50 (OVCAR-4 ovarian): 10.9 µM
TGI (OVCAR-4 ovarian): 23.9 µM
GI50 (SF-295 CNS): 12.1 µM
TGI (SF-295 CNS): > 58.1 µM
GI50 (NCI-H226 lung): 24.8 µM
TGI (NCI-H226 lung): > 67 µM
GI50 (MALME-3M melanoma): 14.4 µM
TGI (MALME-3M melanoma): 29.1 µM
GI50 (T-47D breast): 20.8 µM
TGI (T-47D breast): 61.4 µM
GI50 (SR leukemia): 0.245 µM
TGI (SR leukemia): 4.17 µM
GI50 (DU-145 prostate): 1.83 µM
TGI (DU-145 prostate): 3.74 µM
GI50 (RPMI-8226 leukemia): 1.82 µM
TGI (RPMI-8226 leukemia): 6.39 µM
GI50 (SF-268 CNS): 9.87 µM
TGI (SF-268 CNS): > 69 µM
GI50 (OVCAR-3 ovarian): 10.8 µM
TGI (OVCAR-3 ovarian): 33 µM
GI50 (SK-MEL-5 melanoma): 18.4 µM
TGI (SK-MEL-5 melanoma): 36.3 µM
GI50 (CCRF-CEM leukemia): 0.319 µM
TGI (CCRF-CEM leukemia): 13.7 µM
GI50 (HCC-2998 colon): 3.69 µM
TGI (HCC-2998 colon): 8.34 µM
GI50 (PC-3 prostate): 16.8 µM
TGI (PC-3 prostate): 85.6 µM
GI50 (HOP-62 NSCLC): 15.8 µM
TGI (HOP-62 NSCLC): 43.3 µM
GI50 (BT-549 breast): 15.2 µM
TGI (BT-549 breast): 31.9 µM
GI50 (HT29 colon): 1.82 µM
TGI (HT29 colon): 3.66 µM
GI50 (SK-OV-3 ovarian): 20.8 µM
TGI (SK-OV-3 ovarian): 51.1 µM
GI50 (MDA-MB-435): 14.7 µM
TGI (MDA-MB-435): 34.3 µM
GI50 (U251 CNS): 7.85 µM
TGI (U251 CNS): 51.6 µM
GI50 (NCI-H522 lung): 10.8 µM
TGI (NCI-H522 lung): 59.2 µM
GI50 (MCF7 breast): 1.2 µM
TGI (MCF7 breast): 2.84 µM
GI50 (SK-MEL-2 melanoma): > 100 µM
TGI (SK-MEL-2 melanoma): > 100 µM
GI50 (RXF 393 renal): 9.22 µM
TGI (RXF 393 renal): 37.8 µM
GI50 (LOX IMVI melanoma): 1.43 µM
TGI (LOX IMVI melanoma): 3 µM
